Results taken from ChEMBL document CHEMBL4507292 (2021).

What was measured:
[1] = target: Alpha-2B adrenergic receptor (Homo sapiens, UniProt P18089); experiment: GPCRScan assay: inhibition of Alpha2B; set-up: radioligand conc. used [nm] 1.5 – 2.0, parental cells HEKT
[2] = target: AP2-associated protein kinase 1 (Homo sapiens) (UniProt Q2M2I8); conditions: Compound concentration 1000.0 nM
[3] = target: Serine/threonine-protein kinase B-raf (Homo sapiens) (UniProt P15056); conditions: Compound concentration 1000.0 nM
Serine/threonine-protein kinase B-raf (Homo sapiens), sequence (P15056 whole entry): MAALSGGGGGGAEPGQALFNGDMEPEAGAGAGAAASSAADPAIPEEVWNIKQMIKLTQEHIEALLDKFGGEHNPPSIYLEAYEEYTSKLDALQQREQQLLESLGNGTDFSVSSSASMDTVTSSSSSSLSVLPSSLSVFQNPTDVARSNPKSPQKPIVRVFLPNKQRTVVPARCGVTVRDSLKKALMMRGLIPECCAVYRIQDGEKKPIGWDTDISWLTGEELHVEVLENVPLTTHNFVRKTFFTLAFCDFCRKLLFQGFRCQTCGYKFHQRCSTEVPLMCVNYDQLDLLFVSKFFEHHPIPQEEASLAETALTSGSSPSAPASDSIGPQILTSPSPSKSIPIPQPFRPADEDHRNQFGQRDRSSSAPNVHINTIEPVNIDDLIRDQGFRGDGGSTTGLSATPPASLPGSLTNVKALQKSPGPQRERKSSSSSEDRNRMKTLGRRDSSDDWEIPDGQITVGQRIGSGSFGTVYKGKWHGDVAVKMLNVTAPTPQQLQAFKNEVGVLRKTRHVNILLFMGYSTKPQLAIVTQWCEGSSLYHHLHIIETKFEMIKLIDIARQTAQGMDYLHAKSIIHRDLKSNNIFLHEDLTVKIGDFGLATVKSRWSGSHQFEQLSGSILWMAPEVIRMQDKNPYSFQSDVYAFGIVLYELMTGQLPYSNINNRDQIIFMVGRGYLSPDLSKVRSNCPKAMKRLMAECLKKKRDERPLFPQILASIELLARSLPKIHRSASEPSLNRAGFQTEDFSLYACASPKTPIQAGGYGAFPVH

[4] = target: Cyclin-dependent kinase-like 3 (Homo sapiens) (UniProt Q8IVW4); conditions: Compound concentration 1000.0 nM
[5] = target: Casein kinase I isoform alpha-like (Homo sapiens) (UniProt Q8N752); conditions: Compound concentration 1000.0 nM
Casein kinase I isoform alpha-like (Homo sapiens), sequence (Q8N752 whole entry, canonical isoform): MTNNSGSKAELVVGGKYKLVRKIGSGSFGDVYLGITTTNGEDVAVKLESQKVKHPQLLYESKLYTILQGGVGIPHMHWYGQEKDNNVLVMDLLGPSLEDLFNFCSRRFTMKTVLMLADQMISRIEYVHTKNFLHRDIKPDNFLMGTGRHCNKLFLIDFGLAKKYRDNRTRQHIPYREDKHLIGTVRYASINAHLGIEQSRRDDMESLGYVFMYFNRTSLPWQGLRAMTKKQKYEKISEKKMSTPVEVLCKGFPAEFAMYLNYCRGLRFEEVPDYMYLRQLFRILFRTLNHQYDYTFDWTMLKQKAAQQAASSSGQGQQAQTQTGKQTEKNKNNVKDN

[6] = target: Mitogen-activated protein kinase kinase kinase 12 (Homo sapiens) (UniProt Q12852); conditions: Compound concentration 1000.0 nM
[7] = target: Dual specificity tyrosine-phosphorylation-regulated kinase 1A (Homo sapiens) (UniProt Q13627); conditions: Compound concentration 1000.0 nM
[8] = target: Receptor tyrosine-protein kinase erbB-3 (Homo sapiens) (UniProt P21860); conditions: Compound concentration 1000.0 nM
[9] = target: Mitogen-activated protein kinase 6 (Homo sapiens) (UniProt Q16659); conditions: Compound concentration 1000.0 nM
[10] = target: Mitogen-activated protein kinase 7 (Homo sapiens) (UniProt Q13164); conditions: Compound concentration 1000.0 nM
[11] = system: Receptor-type tyrosine-protein kinase FLT3 (Homo sapiens), P36888 [UNDEFINED MUTATION]; conditions: Compound concentration 1000.0 nM
[12] = target: Serine/threonine-protein kinase haspin (Homo sapiens) (UniProt Q8TF76); conditions: Compound concentration 1000.0 nM
[13] = system: Mast/stem cell growth factor receptor Kit (Homo sapiens), P10721 [L576P]; conditions: Compound concentration 1000.0 nM
[14] = target: Serine/threonine-protein kinase LATS1 (Homo sapiens) (UniProt O95835); conditions: Compound concentration 1000.0 nM
[15] = target: Tyrosine-protein kinase Lyn (Homo sapiens) (UniProt P07948); conditions: Compound concentration 1000.0 nM
[16] = target: Serine/threonine-protein kinase MARK1 (Homo sapiens) (UniProt Q9P0L2); conditions: Compound concentration 1000.0 nM
[17] = target: Dual specificity mitogen-activated protein kinase kinase 3 (Homo sapiens) (UniProt P46734); conditions: Compound concentration 1000.0 nM
Dual specificity mitogen-activated protein kinase kinase 3 (Homo sapiens), sequence (P46734 whole entry): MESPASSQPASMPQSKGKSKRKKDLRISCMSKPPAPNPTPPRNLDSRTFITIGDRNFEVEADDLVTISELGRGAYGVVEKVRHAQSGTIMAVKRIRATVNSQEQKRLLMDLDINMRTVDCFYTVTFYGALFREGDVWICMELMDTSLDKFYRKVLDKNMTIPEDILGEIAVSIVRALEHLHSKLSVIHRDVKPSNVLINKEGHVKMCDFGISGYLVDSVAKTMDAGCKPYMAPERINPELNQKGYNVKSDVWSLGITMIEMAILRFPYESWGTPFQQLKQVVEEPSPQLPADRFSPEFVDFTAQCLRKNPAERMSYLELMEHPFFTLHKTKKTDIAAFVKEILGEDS

[18] = system: Hepatocyte growth factor receptor (Homo sapiens), P08581 [M1250T]; conditions: Compound concentration 1000.0 nM
[19] = system: Hepatocyte growth factor receptor (Homo sapiens), P08581 [Y1235D]; conditions: Compound concentration 1000.0 nM
[20] = target: Myosin light chain kinase, smooth muscle (Homo sapiens) (UniProt Q15746); conditions: Compound concentration 1000.0 nM
Myosin light chain kinase, smooth muscle (Homo sapiens), sequence (Q15746 whole entry): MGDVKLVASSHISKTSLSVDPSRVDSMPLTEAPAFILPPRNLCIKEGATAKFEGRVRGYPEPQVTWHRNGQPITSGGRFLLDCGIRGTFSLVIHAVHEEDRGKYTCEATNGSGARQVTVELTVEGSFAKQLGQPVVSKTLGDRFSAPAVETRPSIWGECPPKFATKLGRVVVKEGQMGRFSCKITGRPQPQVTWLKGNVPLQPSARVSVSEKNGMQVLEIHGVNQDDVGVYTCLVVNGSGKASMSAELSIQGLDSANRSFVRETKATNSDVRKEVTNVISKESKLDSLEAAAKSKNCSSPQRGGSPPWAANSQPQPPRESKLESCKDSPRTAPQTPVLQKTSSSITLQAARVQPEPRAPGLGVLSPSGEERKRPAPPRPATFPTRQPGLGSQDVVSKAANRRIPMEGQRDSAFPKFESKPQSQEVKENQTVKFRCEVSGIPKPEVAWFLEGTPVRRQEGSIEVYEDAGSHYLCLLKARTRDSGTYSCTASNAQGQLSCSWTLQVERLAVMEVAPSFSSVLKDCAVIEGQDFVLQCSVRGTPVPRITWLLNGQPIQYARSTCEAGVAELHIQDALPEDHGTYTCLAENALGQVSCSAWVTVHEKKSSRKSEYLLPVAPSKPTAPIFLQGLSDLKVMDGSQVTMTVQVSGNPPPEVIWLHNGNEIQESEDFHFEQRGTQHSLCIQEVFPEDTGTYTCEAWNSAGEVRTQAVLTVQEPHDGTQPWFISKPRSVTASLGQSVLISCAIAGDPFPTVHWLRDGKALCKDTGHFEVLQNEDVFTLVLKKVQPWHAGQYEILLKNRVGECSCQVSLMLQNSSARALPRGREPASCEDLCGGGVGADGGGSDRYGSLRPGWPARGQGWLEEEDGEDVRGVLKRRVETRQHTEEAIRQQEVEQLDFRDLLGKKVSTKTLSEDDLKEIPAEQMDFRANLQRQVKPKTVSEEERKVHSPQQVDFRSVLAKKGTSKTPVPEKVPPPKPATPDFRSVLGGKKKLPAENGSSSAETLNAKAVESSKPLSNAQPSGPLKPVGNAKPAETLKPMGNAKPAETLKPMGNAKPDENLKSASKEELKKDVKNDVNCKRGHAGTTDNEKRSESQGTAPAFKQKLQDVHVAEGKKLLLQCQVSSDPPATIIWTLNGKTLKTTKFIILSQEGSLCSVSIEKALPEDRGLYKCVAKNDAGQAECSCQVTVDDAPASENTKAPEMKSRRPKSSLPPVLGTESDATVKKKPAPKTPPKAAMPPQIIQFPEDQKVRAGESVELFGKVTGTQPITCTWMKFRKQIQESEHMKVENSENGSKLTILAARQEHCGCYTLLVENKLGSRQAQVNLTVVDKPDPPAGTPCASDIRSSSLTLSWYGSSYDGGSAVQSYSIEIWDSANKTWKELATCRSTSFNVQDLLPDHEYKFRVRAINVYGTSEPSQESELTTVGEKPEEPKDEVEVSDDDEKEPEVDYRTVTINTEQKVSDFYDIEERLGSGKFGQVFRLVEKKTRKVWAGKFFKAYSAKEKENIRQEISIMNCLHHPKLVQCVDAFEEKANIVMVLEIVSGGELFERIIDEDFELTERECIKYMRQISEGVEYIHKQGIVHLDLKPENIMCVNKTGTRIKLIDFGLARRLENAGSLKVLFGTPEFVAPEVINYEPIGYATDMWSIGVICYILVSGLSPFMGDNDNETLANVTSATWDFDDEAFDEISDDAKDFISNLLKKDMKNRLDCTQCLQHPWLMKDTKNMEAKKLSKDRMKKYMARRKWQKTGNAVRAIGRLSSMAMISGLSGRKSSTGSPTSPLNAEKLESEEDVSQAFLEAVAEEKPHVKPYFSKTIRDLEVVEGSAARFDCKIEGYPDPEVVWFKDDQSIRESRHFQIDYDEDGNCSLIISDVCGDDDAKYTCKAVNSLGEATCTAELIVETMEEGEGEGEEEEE

[21] = target: Serine/threonine-protein kinase Nek11 (Homo sapiens) (UniProt Q8NG66); conditions: Compound concentration 1000.0 nM
[22] = target: Serine/threonine-protein kinase Nek6 (Homo sapiens) (UniProt Q9HC98); conditions: Compound concentration 1000.0 nM
[23] = target: Serine/threonine-protein kinase pim-2 (Homo sapiens) (UniProt Q9P1W9); conditions: Compound concentration 1000.0 nM
[24] = target: Serine/threonine-protein kinase N1 (Homo sapiens) (UniProt Q16512); conditions: Compound concentration 1000.0 nM
[25] = target: Serine/threonine-protein kinase PLK4 (Homo sapiens) (UniProt O00444); conditions: Compound concentration 1000.0 nM
[26] = target: Serine/threonine-protein kinase PRP4 homolog (Homo sapiens) (UniProt Q13523); conditions: Compound concentration 1000.0 nM
[27] = target: Proto-oncogene tyrosine-protein kinase ROS (Homo sapiens) (UniProt P08922); conditions: Compound concentration 1000.0 nM
[28] = target: Ribosomal protein S6 kinase alpha-2 (Homo sapiens) (UniProt Q15349); conditions: Compound concentration 1000.0 nM
[29] = target: Ribosomal protein S6 kinase alpha-6 (Homo sapiens) (UniProt Q9UK32); conditions: Compound concentration 1000.0 nM
Ribosomal protein S6 kinase alpha-6 (Homo sapiens), sequence (Q9UK32 whole entry): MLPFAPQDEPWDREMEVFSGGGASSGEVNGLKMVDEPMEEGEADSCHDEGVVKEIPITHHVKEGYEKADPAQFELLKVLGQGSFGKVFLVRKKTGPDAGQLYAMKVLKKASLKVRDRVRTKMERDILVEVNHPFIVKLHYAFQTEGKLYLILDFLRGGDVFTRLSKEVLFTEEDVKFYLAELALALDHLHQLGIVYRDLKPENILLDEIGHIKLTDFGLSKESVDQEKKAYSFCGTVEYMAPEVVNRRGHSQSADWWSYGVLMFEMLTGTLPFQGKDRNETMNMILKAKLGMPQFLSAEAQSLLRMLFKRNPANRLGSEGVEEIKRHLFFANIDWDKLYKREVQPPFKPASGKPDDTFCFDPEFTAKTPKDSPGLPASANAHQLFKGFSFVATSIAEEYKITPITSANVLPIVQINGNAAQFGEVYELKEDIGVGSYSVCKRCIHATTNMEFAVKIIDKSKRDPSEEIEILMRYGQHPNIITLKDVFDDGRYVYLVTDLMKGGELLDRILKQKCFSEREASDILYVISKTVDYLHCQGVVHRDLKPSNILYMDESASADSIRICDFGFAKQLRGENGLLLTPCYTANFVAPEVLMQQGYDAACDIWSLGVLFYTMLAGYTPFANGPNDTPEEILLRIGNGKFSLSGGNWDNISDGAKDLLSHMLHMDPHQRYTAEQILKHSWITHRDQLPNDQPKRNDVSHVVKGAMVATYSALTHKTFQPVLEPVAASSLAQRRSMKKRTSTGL

[30] = target: Tyrosine-protein kinase Srms (Homo sapiens) (UniProt Q9H3Y6); conditions: Compound concentration 1000.0 nM
Tyrosine-protein kinase Srms (Homo sapiens), sequence (Q9H3Y6 whole entry): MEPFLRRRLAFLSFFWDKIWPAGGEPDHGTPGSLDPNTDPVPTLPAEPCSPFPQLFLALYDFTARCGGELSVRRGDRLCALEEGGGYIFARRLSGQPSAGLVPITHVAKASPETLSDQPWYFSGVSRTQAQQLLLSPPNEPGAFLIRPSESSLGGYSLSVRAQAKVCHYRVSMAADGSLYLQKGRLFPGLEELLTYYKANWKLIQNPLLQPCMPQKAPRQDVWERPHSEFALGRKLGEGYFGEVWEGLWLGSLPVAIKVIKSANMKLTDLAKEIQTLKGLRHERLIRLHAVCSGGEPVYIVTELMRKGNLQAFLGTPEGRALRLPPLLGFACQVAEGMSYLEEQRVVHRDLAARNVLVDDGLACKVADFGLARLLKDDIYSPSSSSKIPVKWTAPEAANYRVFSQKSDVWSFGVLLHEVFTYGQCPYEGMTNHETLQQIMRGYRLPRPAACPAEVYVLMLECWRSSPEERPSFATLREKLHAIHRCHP

[31] = target: Serine/threonine-protein kinase tousled-like 2 (Homo sapiens) (UniProt Q86UE8); conditions: Compound concentration 1000.0 nM
[32] = target: NT-3 growth factor receptor (Homo sapiens) (UniProt Q16288); conditions: Compound concentration 1000.0 nM
[33] = target: Transient receptor potential cation channel subfamily M member 6 (Homo sapiens) (UniProt Q9BX84); conditions: Compound concentration 1000.0 nM
[34] = target: Serine/threonine-protein kinase ULK3 (Homo sapiens) (UniProt Q6PHR2); conditions: Compound concentration 1000.0 nM
[35] = target: 5-hydroxytryptamine receptor 7 (Homo sapiens) (UniProt P34969); conditions: Compound concentration 10.0 uM
5-hydroxytryptamine receptor 7 (Homo sapiens), sequence (P34969 whole entry): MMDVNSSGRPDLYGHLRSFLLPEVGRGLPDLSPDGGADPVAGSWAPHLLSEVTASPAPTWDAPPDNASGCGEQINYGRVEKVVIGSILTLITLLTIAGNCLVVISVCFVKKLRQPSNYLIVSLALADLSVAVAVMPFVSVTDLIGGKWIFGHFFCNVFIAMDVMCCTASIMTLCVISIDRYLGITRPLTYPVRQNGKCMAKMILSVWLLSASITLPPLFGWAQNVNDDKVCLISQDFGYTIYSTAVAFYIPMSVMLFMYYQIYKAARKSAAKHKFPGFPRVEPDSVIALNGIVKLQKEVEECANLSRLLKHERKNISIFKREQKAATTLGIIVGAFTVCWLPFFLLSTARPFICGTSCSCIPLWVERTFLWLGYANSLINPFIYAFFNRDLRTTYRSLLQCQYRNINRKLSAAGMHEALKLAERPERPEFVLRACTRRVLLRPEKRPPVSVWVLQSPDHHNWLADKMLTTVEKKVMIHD

[36] = target: D(3) dopamine receptor (Homo sapiens) (UniProt P35462); conditions: Compound concentration 10.0 uM
[37] = target: Kappa-type opioid receptor (Homo sapiens, UniProt P41145); conditions: Compound concentration 10.0 uM
[38] = target: Alpha-1A adrenergic receptor (Homo sapiens) (UniProt P35348); conditions: Compound concentration 10.0 uM
[39] = target: T1, Alpha-2C adrenergic receptor (Homo sapiens) (UniProt P18825); conditions: Compound concentration 10.0 uM
T1 sequence (whole entry): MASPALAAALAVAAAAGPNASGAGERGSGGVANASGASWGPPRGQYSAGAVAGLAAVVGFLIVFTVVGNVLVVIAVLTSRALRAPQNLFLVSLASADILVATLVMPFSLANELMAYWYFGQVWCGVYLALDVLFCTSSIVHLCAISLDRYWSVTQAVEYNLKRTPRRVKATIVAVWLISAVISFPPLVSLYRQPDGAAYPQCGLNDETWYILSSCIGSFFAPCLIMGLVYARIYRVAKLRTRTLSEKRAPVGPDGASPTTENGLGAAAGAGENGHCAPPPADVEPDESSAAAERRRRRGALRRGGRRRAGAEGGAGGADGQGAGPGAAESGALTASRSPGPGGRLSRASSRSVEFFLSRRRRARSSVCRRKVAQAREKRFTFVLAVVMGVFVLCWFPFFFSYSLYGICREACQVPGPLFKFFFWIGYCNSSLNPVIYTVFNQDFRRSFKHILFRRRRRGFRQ

For `Cc1c(C(=O)O)cc(-c2ccc(C3CCNCC3)cc2)c2ccc(-c3ccc(C(F)(F)F)cc3)cc12` [PPTN-NC], the Ki [1] was 1840 nM, the residual activity [2] was 100% and the residual activity [3] was 100%. It also gave a residual activity [4] of 100%, a residual activity [5] of 100% and a residual activity [6] of 100%. It also gave a residual activity [7] of 100%, a residual activity [8] of 86% and a residual activity [9] of 100%. It also gave a residual activity [10] of 100%, a residual activity [11] of 81% and a residual activity [12] of 100%. For the same molecule, the residual activity [13] was 100%, the residual activity [14] was 86% and the residual activity [15] was 90%. The residual activity [16] was 100%, the residual activity [17] was 100% and the residual activity [18] was 97%. The residual activity [19] was 100%, the residual activity [20] was 82% and the residual activity [21] was 100%. The residual activity [22] was 100%, the residual activity [23] was 100% and the residual activity [24] was 100%. The residual activity [25] was 96%, the residual activity [26] was 100% and the residual activity [27] was 100%. It also gave a residual activity [28] of 100%, a residual activity [29] of 100% and a residual activity [30] of 100%. For the same molecule, the residual activity [31] was 100%, the residual activity [32] was 100% and the residual activity [33] was 100%. For the same molecule, the residual activity [34] was 95%, the inhibition [35] was -3.66% and the inhibition [36] was 46.7%. It also gave an inhibition [37] of 27.9%, an inhibition [38] of 25.4% and an inhibition [39] of 46.4%.

Work on `O=C(O)c1cc(-c2ccc(C3CCNCC3)cc2)c2ccc(-c3ccc(C(F)(F)F)cc3)cc2c1` [PPTN] yielded a Ki [1] of 2560 nM, a residual activity [2] of 100% and a residual activity [3] of 100%. It also gave a residual activity [4] of 94%, a residual activity [5] of 100% and a residual activity [6] of 100%. The residual activity [7] was 100%, the residual activity [8] was 85% and the residual activity [9] was 100%. The residual activity [10] was 100%, the residual activity [11] was 99% and the residual activity [12] was 100%. It also gave a residual activity [13] of 100%, a residual activity [14] of 88% and a residual activity [15] of 100%. It also gave a residual activity [16] of 100%, a residual activity [17] of 100% and a residual activity [18] of 86%. It also gave a residual activity [19] of 100%, a residual activity [20] of 85% and a residual activity [21] of 100%. It also gave a residual activity [22] of 100%, a residual activity [23] of 100% and a residual activity [24] of 100%. For the same molecule, the residual activity [25] was 80%, the residual activity [26] was 100% and the residual activity [27] was 100%. For the same molecule, the residual activity [28] was 100%, the residual activity [29] was 100% and the residual activity [30] was 100%. It also gave a residual activity [31] of 100%, a residual activity [32] of 100% and a residual activity [33] of 100%. The residual activity [34] was 100%, the inhibition [35] was 17.8% and the inhibition [36] was 65.6%. It also gave an inhibition [37] of 41.7%, an inhibition [38] of 46.7% and an inhibition [39] of 30.2%.
